Assay [1] has as its system NF-κB pathway. The assay is described as follows: TNF-α assay (THP-1 cells differentiated to macrophages with IFN-γ, NF-κB pathway activated with LPS; ELISA). It is filed as cell-based, Human. The following applies: Homo sapiens, THP-1, THP-1 macrophages, compound 30 min, 50 ng/mL LPS 3 hours. A digest of the protocol:
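THP-1 cells differentiated with 25 ng/mL IFN-γ for 24 h, then 30 min with compounds in serum-free medium. NF-κB activated with 50 ng/mL LPS, 3 h at 37 °C. Supernatant TNF-α by ELISA; IC50 from four-parameter logistic fit of % inhibition.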
On the technique in general: In an ELISA, binding on a coated surface is turned into a signal by an enzyme label.

In assay [2] the target is T1, NLRP3 inflammasome (Homo sapiens, UniProt Q96P20).
T1 construct: IL-1beta HTRF
The experiment in a line: IL-1β TR-FRET assay (THP-1 cells differentiated to macrophages with IFN-γ, LPS primed, ATP activated; HTRF). It is filed as cell-based. The following applies: THP-1 macrophages, 50 ng/mL LPS priming, compound 30 min, 20 mM ATP 2 hours. A digest of the protocol: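 THP-1 cells differentiated with 25 ng/mL IFN-γ for 24 h, primed with 50 ng/mL LPS in serum-free medium for 24 h, then treated with compounds for 30 min before 20 mM ATP activation for 2 h at 37 °C. Secreted IL-1β quantified by HTRF; IC50 from logistic fit of % inhibition.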
For orientation: TR-FRET usually uses a lanthanide donor and a delayed reading to cut background.

In US20260365671A1, “HETEROCYCLIC COMPOUND” (Takeda Pharmaceutical Company Limited, priority 2022, published 2026) one finds IC50 data, which are given here for 12 compounds.

SMILES strings stand for the structures. pIC50: −log10 of the molar value.

A word on the pIC50: it is the negative decadic logarithm of the IC50, by convention in mol/L.

T1 sequence (Q96P20 whole entry): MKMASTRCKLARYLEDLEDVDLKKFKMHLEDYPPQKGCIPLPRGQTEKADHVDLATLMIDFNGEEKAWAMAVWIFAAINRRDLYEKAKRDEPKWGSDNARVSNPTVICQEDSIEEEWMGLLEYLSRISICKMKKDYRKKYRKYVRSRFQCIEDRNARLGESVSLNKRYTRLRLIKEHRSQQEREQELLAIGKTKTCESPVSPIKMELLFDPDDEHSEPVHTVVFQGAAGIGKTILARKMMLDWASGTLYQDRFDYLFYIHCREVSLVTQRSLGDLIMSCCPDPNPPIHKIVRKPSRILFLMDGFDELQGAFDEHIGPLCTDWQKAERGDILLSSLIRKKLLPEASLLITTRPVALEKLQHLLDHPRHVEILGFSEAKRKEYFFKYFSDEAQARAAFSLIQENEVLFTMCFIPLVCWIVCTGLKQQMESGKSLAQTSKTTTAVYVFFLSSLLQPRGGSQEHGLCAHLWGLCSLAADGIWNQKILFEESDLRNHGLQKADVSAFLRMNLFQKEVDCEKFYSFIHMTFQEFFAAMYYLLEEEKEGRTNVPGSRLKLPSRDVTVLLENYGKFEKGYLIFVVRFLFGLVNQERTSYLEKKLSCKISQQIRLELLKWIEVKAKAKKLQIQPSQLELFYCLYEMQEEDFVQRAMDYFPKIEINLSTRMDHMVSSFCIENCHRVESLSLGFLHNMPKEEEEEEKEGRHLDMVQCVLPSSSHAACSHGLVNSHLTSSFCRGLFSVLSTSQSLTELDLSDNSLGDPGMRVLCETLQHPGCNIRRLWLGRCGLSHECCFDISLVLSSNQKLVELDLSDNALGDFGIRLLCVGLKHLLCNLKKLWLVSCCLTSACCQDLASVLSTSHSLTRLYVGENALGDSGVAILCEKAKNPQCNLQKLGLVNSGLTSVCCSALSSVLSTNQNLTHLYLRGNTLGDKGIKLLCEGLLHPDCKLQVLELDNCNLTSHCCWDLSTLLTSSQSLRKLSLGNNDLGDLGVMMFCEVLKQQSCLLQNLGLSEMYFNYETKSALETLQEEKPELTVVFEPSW

In the case of `Cc1cc(C)c(-n2cc3sc(NC4(CF)COC4)nc3n2)c(O)c1` [Example 170, 2-(5-{[3-(fluoromethyl)oxetan-3-yl]amino}-2H-pyrazolo[3,4-d][1,3]thiazol-2-yl)-3,5-dimethylphenol], the pIC50 in assay [1] is less than 4.52; in assay [2], 5.70.
Taken in the same sequence, the figures for `Cc1cc(C)c(-n2cc3sc(NCC(O)C(F)F)nc3n2)c(O)c1` (stereo not drawn) [Example 171, 2-{5-[(3,3-difluoro-2-hydroxypropyl)amino]-2H-pyrazolo[3,4-d][1,3]thiazol-2-yl}-3,5-dimethylphenol] were less than 5.00 and 6.80.
Taken in the same sequence, the figures for `Cc1cc(C)c(-n2cc3sc(NC[C@@H](C)OC(F)F)nc3n2)c(O)c1` [Example 172, 2-(5-{[(2R)-2-(difluoromethoxy)propyl]amino}-2H-pyrazolo[3,4-d][1,3]thiazol-2-yl)-3,5-dimethylphenol] were less than 5.00 and 6.12.
Taken in the same sequence, the figures for `Cc1cc(C)c(-n2cc3sc(NC45CC(OC(F)F)(C4)C5)nc3n2)c(O)c1` [Example 173, 2-(5-{[3-(difluoromethoxy)bicyclo[1.1.1]pentan-1-yl]amino}-2H-pyrazolo[3,4-d][1,3]thiazol-2-yl)-3,5-dimethylphenol] were less than 5.00 and 5.46.
Take `COc1cc(C)c(-n2cc3sc(N[C@@H]4C[C@@H](F)CN(C5CC5)C4)nc3n2)c(O)c1` [Example 174, 2-(5-{[(3R,5R)-1-cyclopropyl-5-fluoropiperidin-3-yl]amino}-2H-pyrazolo[3,4-d][1,3]thiazol-2-yl)-5-methoxy-3-methylphenol]: the pIC50 in assay [1] is less than 4.52; in assay [2], 6.96.
For `Cc1cc(O)c(-n2cc3sc(N[C@@H]4C[C@@H](F)CN(C)C4)nc3n2)c(CC(F)F)c1` [Example 175, 3-(2,2-difluoroethyl)-2-(5-{[(3R,5R)-5-fluoro-1-methylpiperidin-3-yl]amino}-2H-pyrazolo[3,4-d][1,3]thiazol-2-yl)-5-methylphenol], in that order: less than 4.52 and 8.43.
Taken in the same sequence, the figures for `Cc1cc(O)c(-n2cc3sc(N[C@@H]4C[C@@H](F)CN(C)C4)nc3n2)c(COC(F)F)c1` [Example 176, 3-[(difluoromethoxy)methyl]-2-(5-{[(3R,5R)-5-fluoro-1-methylpiperidin-3-yl]amino}-2H-pyrazolo[3,4-d][1,3]thiazol-2-yl)-5-methylphenol] were less than 4.52 and 7.66.
For the compound `COCc1cc(C)cc(O)c1-n1cc2sc(N[C@@H]3C[C@@H](F)CN(C)C3)nc2n1` [Example 177, 2-(5-{[(3R,5R)-5-fluoro-1-methylpiperidin-3-yl]amino}-2H-pyrazolo[3,4-d][1,3]thiazol-2-yl)-3-(methoxymethyl)-5-methylphenol], the pIC50 in assay [1] was less than 4.52; in assay [2], 7.40.
On to `Cc1cc(C)c(-n2cc3sc(N[C@H]4C[C@@H](F)CN(C)C4)nc3n2)c(O)c1` [Example 178, 2-(5-{[(3S,5R)-5-fluoro-1-methylpiperidin-3-yl]amino}-2H-pyrazolo[3,4-d][1,3]thiazol-2-yl)-3,5-dimethylphenol], for which the pIC50 in assay [1] is less than 4.52; in assay [2] it was 5.08.
Taken in the same sequence, the figures for `Cc1cc(C)c(-n2cc3sc(N[C@@H]4C[C@H](F)CN(C)C4)nc3n2)c(O)c1` [Example 179, 2-(5-{[(3R,5S)-5-fluoro-1-methylpiperidin-3-yl]amino}-2H-pyrazolo[3,4-d][1,3]thiazol-2-yl)-3,5-dimethylphenol] were less than 4.52 and 7.03.
Turning to `Cc1cc(C)c(-n2cc3sc(N[C@H]4C[C@H](F)CN(C)C4)nc3n2)c(O)c1` [Example 180, 2-(5-{[(3S,5S)-5-fluoro-1-methylpiperidin-3-yl]amino}-2H-pyrazolo[3,4-d][1,3]thiazol-2-yl)-3,5-dimethylphenol], the pIC50 in assay [1] was less than 4.52; in assay [2], 5.38.
In the case of `CCNc1nc2nn(-c3c(C)cc(C)cc3O)cc2s1` [Example 181, 2-[5-(ethylamino)-2H-pyrazolo[3,4-d][1,3]thiazol-2-yl]-3,5-dimethylphenol], the pIC50 in assay [1] is less than 4.52; in assay [2], 6.47.
